Laboratory results: ChEMBL document CHEMBL1201861, “Genomics of Drug Sensitity in Cancer screening data, Wellcome Trust Sanger Institute”

How the values were obtained:
Experiment in all cases: cells
[1] = tested on: CW-2; type: functional, cell-based, Homo sapiens; details: Homo sapiens, CW-2;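 further: growth inhibition of CW-2 cells, read out by a cell viability assay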
Description: SANGER: Inhibition of human CW-2 cell growth in a cell viability assay.

[2] = tested on: Detroit 562; type: functional, cell-based, Homo sapiens; details: Homo sapiens, Detroit 562;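 further: growth inhibition of human Detroit 562 cells, read out by a cell viability assay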
Description: SANGER: Inhibition of human Detroit562 cell growth in a cell viability assay.

[3] = tested on: EW-3; type: functional, cell-based; details: Homo sapiens;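 further: cell viability assay read-out, IC50 reflects inhibition of growth of the EW-3 cells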
Description: SANGER: Inhibition of human EW-3 cell growth in a cell viability assay.

[4] = tested on: FTC-133; type: functional, cell-based, Homo sapiens; details: Homo sapiens, FTC-133
[5] = tested on: GAK; type: functional, cell-based, Homo sapiens; details: Homo sapiens, GAK;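 further: cell growth inhibition read out by a cell viability assay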
Description: SANGER: Inhibition of human GAK cell growth in a cell viability assay.

[6] = tested on: GOTO; type: functional, cell-based, Homo sapiens; details: Homo sapiens, GOTO;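 further: growth inhibition of GOTO cells, read out by a cell viability assay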
Description: SANGER: Inhibition of human GOTO cell growth in a cell viability assay.

[7] = tested on: HCC38; type: functional, cell-based, Homo sapiens; details: Homo sapiens, HCC38;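 further: cell viability assay on the human HCC38 cell line, with IC50 marking the concentration that inhibits cell growth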
Description: SANGER: Inhibition of human HCC38 cell growth in a cell viability assay.

[8] = tested on: HCT-116; type: functional, cell-based, Homo sapiens; details: Homo sapiens, HCT-116
Description: SANGER: Inhibition of human HCT-116 cell growth in a cell viability assay.

[9] = tested on: HOS; type: functional, cell-based, Homo sapiens; details: Homo sapiens, HOS;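 further: growth inhibition of human HOS cells, read out with a cell viability assay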
Description: SANGER: Inhibition of human HOS cell growth in a cell viability assay.

[10] = tested on: HPAF-II; type: functional, cell-based, Homo sapiens; details: Homo sapiens, HPAF-II;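 further: growth inhibition of HPAF-II cells, read out with a cell viability assay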
Description: SANGER: Inhibition of human HPAF-II cell growth in a cell viability assay.

[11] = tested on: HT-144; type: functional, cell-based, Homo sapiens; details: Homo sapiens, HT-144
Description: SANGER: Inhibition of human HT-144 cell growth in a cell viability assay.

[12] = tested on: JEG-3; type: functional, cell-based, Homo sapiens; details: Homo sapiens, JEG-3;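 further: growth inhibition of human JEG-3 cells, read out with a cell viability assay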
Description: SANGER: Inhibition of human JEG-3 cell growth in a cell viability assay.

[13] = tested on: KP-N-YN; type: functional, cell-based; details: Homo sapiens;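 further: growth inhibition of KP-N-YN cells, read out with a cell viability assay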
Description: SANGER: Inhibition of human KP-N-YN cell growth in a cell viability assay.

[14] = tested on: KU-19-19; type: functional, cell-based, Homo sapiens; details: Homo sapiens, KU-19-19
Description: SANGER: Inhibition of human KU-19-19 cell growth in a cell viability assay.

[15] = tested on: L-363; type: functional, cell-based; details: Homo sapiens
Description: SANGER: Inhibition of human L-363 cell growth in a cell viability assay.

[16] = tested on: L-428; type: functional, cell-based; details: Homo sapiens
Description: SANGER: Inhibition of human L-428 cell growth in a cell viability assay.

[17] = tested on: LB996-RCC; type: functional, cell-based; details: Homo sapiens
Description: SANGER: Inhibition of human LB996-RCC cell growth in a cell viability assay.

[18] = tested on: LS-513; type: functional, cell-based, Homo sapiens; details: Homo sapiens, LS-513
Description: SANGER: Inhibition of human LS-513 cell growth in a cell viability assay.

[19] = tested on: MFE-280; type: functional, cell-based, Homo sapiens; details: Homo sapiens, MFE-280;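 further: growth inhibition of MFE-280 cells, determined with a cell viability readout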
Description: SANGER: Inhibition of human MFE-280 cell growth in a cell viability assay.

[20] = tested on: ML-2; type: functional, cell-based; details: Homo sapiens;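 further: growth inhibition of ML-2 cells, measured with a cell viability readout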
Description: SANGER: Inhibition of human ML-2 cell growth in a cell viability assay.

[21] = tested on: NB10; type: functional, cell-based, Homo sapiens; details: Homo sapiens, NB10;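 further: growth inhibition of NB10 cells, read out by a cell viability assay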
Description: SANGER: Inhibition of human NB10 cell growth in a cell viability assay.

[22] = tested on: NB13; type: functional, cell-based, Homo sapiens; details: Homo sapiens, NB13;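 further: cell viability readout measuring growth inhibition of human NB13 cells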
Description: SANGER: Inhibition of human NB13 cell growth in a cell viability assay.

[23] = tested on: NB6; type: functional, cell-based, Homo sapiens; details: Homo sapiens, NB6;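 further: growth inhibition of NB6 cells, read out by a cell viability assay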
Description: SANGER: Inhibition of human NB6 cell growth in a cell viability assay.

[24] = tested on: NB69; type: functional, cell-based, Homo sapiens; details: Homo sapiens, NB69;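 further: growth inhibition of NB69 cells, determined by a cell viability assay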
Description: SANGER: Inhibition of human NB69 cell growth in a cell viability assay.

[25] = tested on: NCI-H1650; type: functional, cell-based, Homo sapiens; details: Homo sapiens, NCI-H1650;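 further: growth inhibition of human NCI-H1650 cells measured by a cell viability assay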
Description: SANGER: Inhibition of human NCI-H1650 cell growth in a cell viability assay.

[26] = tested on: NCI-H2052; type: functional, cell-based, Homo sapiens; details: Homo sapiens, NCI-H2052;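 further: growth inhibition of NCI-H2052 cells, read out with a cell viability assay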
Description: SANGER: Inhibition of human NCI-H2052 cell growth in a cell viability assay.

[27] = tested on: NCI-H441; type: functional, cell-based; details: Homo sapiens;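 further: growth inhibition of NCI-H441 cells, read out with a cell viability assay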
Description: SANGER: Inhibition of human NCI-H441 cell growth in a cell viability assay.

[28] = tested on: NCI-H526; type: functional, cell-based; details: Homo sapiens;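 further: growth inhibition of the human NCI-H526 cell line, measured by a cell viability assay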
Description: SANGER: Inhibition of human NCI-H526 cell growth in a cell viability assay.

[29] = tested on: NCI-H69; type: functional, cell-based; details: Homo sapiens;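 further: growth inhibition of the cell line, read out with a cell viability assay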
Description: SANGER: Inhibition of human NCI-H69 cell growth in a cell viability assay.

[30] = tested on: OMC-1; type: functional, cell-based, Homo sapiens; details: Homo sapiens, OMC-1;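 further: growth inhibition of the OMC-1 cell line, measured by a cell viability assay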
Description: SANGER: Inhibition of human OMC-1 cell growth in a cell viability assay.

[31] = tested on: QIMR-WIL; type: functional, cell-based; details: Homo sapiens;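 further: growth inhibition of QIMR-WIL cells, read out with a cell viability assay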
Description: SANGER: Inhibition of human QIMR-WIL cell growth in a cell viability assay.

[32] = tested on: SCH; type: functional, cell-based, Homo sapiens; details: Homo sapiens, SCH;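 further: growth inhibition of human SCH cells, read out in a cell viability assay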
Description: SANGER: Inhibition of human SCH cell growth in a cell viability assay.

[33] = tested on: SK-MEL-24; type: functional, cell-based; details: Homo sapiens;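 further: growth inhibition read out by a cell viability assay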
Description: SANGER: Inhibition of human SK-MEL-24 cell growth in a cell viability assay.

[34] = tested on: SK-MEL3; type: functional, cell-based, Homo sapiens, SK-MEL-3; details: Homo sapiens, SK-MEL3;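 further: growth inhibition of human SK-MEL-3 cells, read out with a cell viability assay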
Description: SANGER: Inhibition of human SK-MEL-3 cell growth in a cell viability assay.

[35] = tested on: SK-MEL-30; type: functional, cell-based; details: Homo sapiens;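 further: growth inhibition of SK-MEL-30 cells, determined with a cell viability assay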
Description: SANGER: Inhibition of human SK-MEL-30 cell growth in a cell viability assay.

[36] = tested on: SK-MES-1; type: functional, cell-based, Homo sapiens; details: Homo sapiens, SK-MES-1;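 further: growth inhibition of human SK-MES-1 cells, read out with a cell viability assay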
Description: SANGER: Inhibition of human SK-MES-1 cell growth in a cell viability assay.

[37] = tested on: SW1088; type: functional, cell-based, Homo sapiens; details: Homo sapiens, SW1088;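 further: growth inhibition of human SW1088 cells, read out by a cell viability assay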
Description: SANGER: Inhibition of human SW1088 cell growth in a cell viability assay.

[38] = tested on: SW1463; type: functional, cell-based, Homo sapiens; details: Homo sapiens, SW1463;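 further: growth inhibition of SW1463 cells, determined with a cell viability assay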
Description: SANGER: Inhibition of human SW1463 cell growth in a cell viability assay.

[39] = tested on: SW1710; type: functional, cell-based, Homo sapiens; details: Homo sapiens, SW1710;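 further: growth inhibition of SW1710 cells, determined with a cell viability assay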
Description: SANGER: Inhibition of human SW1710 cell growth in a cell viability assay.

[40] = tested on: T47D; type: functional, cell-based, Homo sapiens; details: Homo sapiens, T47D;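 further: growth inhibition of human T47D cells, measured with a cell viability assay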
Description: SANGER: Inhibition of human T47D cell growth in a cell viability assay.

[41] = tested on: 5637; type: functional, cell-based, Homo sapiens; details: Homo sapiens
Description: SANGER: Inhibition of human 5637 cell growth in a cell viability assay.

[42] = tested on: 639-V; type: functional, cell-based, Homo sapiens; details: Homo sapiens, 639-V;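 further: growth inhibition of 639-V cells, read out with a cell viability assay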
Description: SANGER: Inhibition of human 639-V cell growth in a cell viability assay.

[43] = tested on: 769-P; type: functional, cell-based, Homo sapiens; details: Homo sapiens, 769-P
Description: SANGER: Inhibition of human 769-P cell growth in a cell viability assay.

[44] = tested on: C3A; type: functional, cell-based, Homo sapiens; details: Homo sapiens, C3A;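 further: growth inhibition of C3A human cells, quantified with a cell viability readout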
Description: SANGER: Inhibition of human C3A cell growth in a cell viability assay.

[45] = tested on: CAL-27; type: functional, cell-based, Homo sapiens; details: Homo sapiens, CAL-27;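 further: Viability-based readout, IC50 reflecting inhibition of CAL-27 cell growth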
Description: SANGER: Inhibition of human CAL-27 cell growth in a cell viability assay.

[46] = tested on: U-118-MG; type: functional, cell-based, Homo sapiens; details: Homo sapiens, U-118-MG
Description: SANGER: Inhibition of human U-118-MG cell growth in a cell viability assay.

[47] = tested on: UMUC3; type: functional, cell-based, Homo sapiens; details: Homo sapiens, UMUC3;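 further: growth inhibition of human UM-UC-3 cells, read out with a cell viability assay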
Description: SANGER: Inhibition of human UM-UC-3 cell growth in a cell viability assay.

[48] = tested on: VM-CUB-1; type: functional, cell-based; details: Homo sapiens;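 further: cell viability assay measuring growth inhibition of the human VM-CUB-1 cell line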
Description: SANGER: Inhibition of human VM-CUB-1 cell growth in a cell viability assay.

[49] = tested on: CAS-1; type: functional, cell-based, Homo sapiens; details: Homo sapiens, CAS-1;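 further: growth inhibition of CAS-1 cells, measured with a cell viability assay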
Description: SANGER: Inhibition of human CAS-1 cell growth in a cell viability assay.

[50] = tested on: COLO-320-HSR; type: functional, cell-based; details: Homo sapiens;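 further: growth inhibition of COLO-320-HSR cells, determined with a cell viability assay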
Description: SANGER: Inhibition of human COLO-320-HSR cell growth in a cell viability assay.

[51] = tested on: COLO-678; type: functional, cell-based, Homo sapiens; details: Homo sapiens, COLO-678
Description: SANGER: Inhibition of human COLO-678 cell growth in a cell viability assay.

[52] = tested on: D-542MG; type: functional, cell-based, Homo sapiens; details: Homo sapiens, D-542MG
Description: SANGER: Inhibition of human D-542MG cell growth in a cell viability assay.

[53] = tested on: NCI-H510A; type: functional, cell-based; details: Homo sapiens;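 further: growth inhibition of NCI-H510A cells, read out with a cell viability assay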
Description: SANGER: Inhibition of human NCI-H510A cell growth in a cell viability assay.

COc1cc(F)c(F)c(Nc2ccc(I)cc2F)c1NS(=O)(=O)C1(CC(O)CO)CC1 (stereo not given)
IC50 [1]: > 5 µM | IC50 [2]: > 5 µM | IC50 [3]: 0.103 µM | IC50 [4]: 4.55 µM | IC50 [5]: 0.565 µM | IC50 [6]: > 5 µM | IC50 [7]: > 5 µM | IC50 [8]: 0.524 µM | IC50 [9]: > 5 µM | IC50 [10]: 1.02 µM | IC50 [11]: 0.049 µM | IC50 [12]: > 5 µM | IC50 [13]: > 5 µM | IC50 [14]: 0.366 µM | IC50 [15]: > 5 µM | IC50 [16]: > 5 µM | IC50 [17]: > 5 µM | IC50 [18]: 0.414 µM | IC50 [19]: > 5 µM | IC50 [20]: 0.503 µM | IC50 [21]: > 5 µM | IC50 [22]: > 5 µM | IC50 [23]: > 5 µM | IC50 [24]: 0.557 µM | IC50 [25]: > 5 µM | IC50 [26]: > 5 µM | IC50 [27]: > 5 µM | IC50 [28]: > 5 µM | IC50 [29]: > 5 µM | IC50 [30]: > 5 µM | IC50 [31]: > 5 µM | IC50 [32]: > 5 µM | IC50 [33]: > 5 µM | IC50 [34]: 2.46 µM | IC50 [35]: > 5 µM | IC50 [36]: 1.35 µM | IC50 [37]: > 5 µM | IC50 [38]: 4.13 µM | IC50 [39]: 2.02 µM | IC50 [40]: > 5 µM | IC50 [41]: > 5 µM | IC50 [42]: > 5 µM | IC50 [43]: > 5 µM | IC50 [44]: > 5 µM | IC50 [45]: > 5 µM | IC50 [46]: > 5 µM | IC50 [47]: > 5 µM | IC50 [48]: 3.65 µM | IC50 [49]: > 5 µM | IC50 [50]: > 5 µM | IC50 [51]: 2.11 µM

COc1cc([C@@H]2c3cc4c(cc3[C@@H](O[C@@H]3O[C@@H]5CO[C@@H](C)O[C@H]5[C@H](O)[C@H]3O)[C@H]3COC(=O)[C@H]23)OCO4)cc(OC)c1O [ETOPOSIDE]
IC50 [1]: > 16 µM | IC50 [52]: > 16 µM | IC50 [2]: 11.1 µM | IC50 [3]: 14.3 µM | IC50 [4]: 3.59 µM | IC50 [5]: > 16 µM | IC50 [6]: 6.38 µM | IC50 [7]: 2.27 µM | IC50 [8]: 1.01 µM | IC50 [9]: 0.474 µM | IC50 [10]: > 16 µM | IC50 [11]: 0.0201 µM | IC50 [12]: 3.04 µM | IC50 [14]: > 16 µM | IC50 [15]: 6.59 µM | IC50 [16]: 2.99 µM | IC50 [17]: > 16 µM | IC50 [18]: > 16 µM | IC50 [19]: > 16 µM | IC50 [20]: 0.178 µM | IC50 [21]: 16 µM | IC50 [22]: 2.76 µM | IC50 [23]: > 16 µM | IC50 [24]: 1.09 µM | IC50 [25]: 1.74 µM | IC50 [26]: 11.5 µM | IC50 [27]: 11.2 µM | IC50 [53]: 8.65 µM | IC50 [28]: 0.456 µM | IC50 [29]: 8.18 µM | IC50 [30]: > 16 µM | IC50 [31]: 0.155 µM | IC50 [32]: > 16 µM | IC50 [33]: > 16 µM | IC50 [34]: 10.1 µM | IC50 [35]: 8.24 µM | IC50 [36]: 0.808 µM | IC50 [37]: > 16 µM | IC50 [38]: > 16 µM | IC50 [39]: 0.518 µM | IC50 [40]: 11.7 µM | IC50 [41]: 0.867 µM | IC50 [42]: 1.01 µM | IC50 [43]: 2.26 µM | IC50 [44]: 7.93 µM | IC50 [45]: 10.4 µM | IC50 [46]: > 16 µM | IC50 [47]: 1.15 µM | IC50 [48]: 2.58 µM | IC50 [49]: > 16 µM | IC50 [50]: 9.73 µM | IC50 [51]: > 16 µM

CCC1=C[C@@H]2CN(C1)Cc1c([nH]c3ccccc13)[C@@](C(=O)OC)(c1cc3c(cc1OC)N(C)[C@H]1[C@@](O)(C(=O)OC)[C@H](OC(C)=O)[C@]4(CC)C=CCN5CC[C@]31[C@@H]54)C2 [VINORELBINE]
IC50 [1]: > 0.064 µM | IC50 [52]: > 0.064 µM | IC50 [2]: 0.00755 µM | IC50 [3]: > 0.064 µM | IC50 [4]: > 0.064 µM | IC50 [5]: > 0.064 µM | IC50 [6]: > 0.064 µM | IC50 [7]: 0.00487 µM | IC50 [8]: 0.00337 µM | IC50 [9]: 0.00322 µM | IC50 [10]: 0.0166 µM | IC50 [11]: 0.000591 µM | IC50 [12]: 0.0141 µM | IC50 [14]: > 0.064 µM | IC50 [15]: 0.0124 µM | IC50 [16]: > 0.064 µM | IC50 [17]: > 0.064 µM | IC50 [18]: > 0.064 µM | IC50 [19]: > 0.064 µM | IC50 [20]: 0.00432 µM | IC50 [21]: > 0.064 µM | IC50 [22]: 0.00501 µM | IC50 [23]: > 0.064 µM | IC50 [24]: 0.0455 µM | IC50 [25]: 0.0407 µM | IC50 [26]: 0.061 µM | IC50 [27]: 0.0331 µM | IC50 [53]: 0.0155 µM | IC50 [28]: 0.00868 µM | IC50 [29]: 0.00634 µM | IC50 [30]: > 0.064 µM | IC50 [31]: 0.00304 µM | IC50 [32]: > 0.064 µM | IC50 [33]: > 0.064 µM | IC50 [34]: 0.0173 µM | IC50 [35]: 0.0124 µM | IC50 [36]: 0.00573 µM | IC50 [37]: > 0.064 µM | IC50 [38]: > 0.064 µM | IC50 [39]: 0.00233 µM | IC50 [40]: > 0.064 µM | IC50 [41]: 0.00755 µM | IC50 [42]: 0.00661 µM | IC50 [43]: 0.0169 µM | IC50 [44]: > 0.064 µM | IC50 [45]: 0.032 µM | IC50 [46]: > 0.064 µM | IC50 [47]: 0.0212 µM | IC50 [48]: 0.0191 µM | IC50 [49]: 0.0401 µM | IC50 [50]: > 0.064 µM | IC50 [51]: > 0.064 µM
